Reference: patent US4122202A, “Amino-3H-isobenzofuranones N-substitutes and their therapeutic application” (Societe Cortial, priority 1975, dated 1978)
Like-named read-outs stand apart in the source and are kept apart here.

Experiments:
rats = assay: Anti-inflammatory activity: carragenic test (carragenine-induced edema of the hind leg); assay type: in vivo, male rats; settings: for ED50: oral
Method: All products were administered in gummy julep except No. 1 and No. 13 which were administered in suspension in Tween. The anti-inflammatory activity was determined by the carragenic test with male rats. Inflammation was induced by the injection of 0.1 ml of a 0.5% suspension of carragenine in a physiological serum into the muscular fasciculus of the metatarsal region of the hind leg of the animal. The substance to be tested was orally administered simultaneously with the carragenine. The edema was measured by phethysmography 1, 2, 3, 4, 5 and 6 hours after the administration of the carragenine.
**50 mg/kg No. 13 which were administered in suspension in Tween.

mice [1] = assay: Analgesic activity: protection against abdominal twisting induced by phenylbenzoquinone (PBQ); assay type: in vivo; settings: for ED50: Mus musculus, oral, read-out: AD 50 (the source's name)
Method: All products were administered in gummy julep except No. 1 and No. 13 which were administered in Tween. The analgesic activity were determined in mice by utilizing as a nociceptive agent, phenylbenzoquinone (PBQ) (modification of the method by Siegmund and co-workers Proc. Soc. Exp. Biol. Med. 1957, 95, 729-31). The process consists of seeking a possible protection for the mouse vis-a-vis abdominal twisting and stretching of the hind legs induced by the parental injection of PBQ. 25 minutes after having orally administered the products to be tested in suspension in 2% Tween 80 or in 6% gummy julep, the PBQ solution was injected and the mice were observed after 5 minutes during the following 5 minutes. For certain products, AD 50 is presented as a measure of activity. […]

mice [2] = assay: Oral toxicity in mice (LDO, LD50); assay type: in vivo; settings: gummy julep (No. 1 and 13 in Tween), 2 weeks observation
Method: (§1) This toxicity is estimated by the calculation of the lethal dose of 50 (LD 50) which determines the fatal dose of the substance for 50% of the animals tested. This determination was effected in accordance with a modification of the method by Litchfield and Wilcoxon (J. Pharmacol. Exp. Therap. 1949, 96, 99-113).
(§2) Swiss mice without specific pathogenic organisms were kept in air conditioned rooms 24 to 48 hours before the start of the tests. They were divided into batches of 5.male. and 5.female.. With the animals unfed for 24 hours, the substances were intragastically administered in suspension in 2% Tween 80 or in 6% gummy julep in a volume equivalent to 0.1 ml per 10 g of the weight of the animal.
(§3) They remained under observation for two weeks before being killed and subjected to an autopsy.
(§4) All products were administered in gummy julep except No. 1 and No. 13 which were administered in Tween. The analgesic activity were determined in mice by utilizing as a nociceptive agent, phenylbenzoquinone (PBQ) (modification of the method by Siegmund and co-workers Proc. Soc. Exp. Biol. Med. 1957, 95, 729-31). The process consists of seeking a possible protection for the mouse vis-a-vis abdominal twisting and stretching of the hind legs induced by the parental injection of PBQ. 25 minutes after having orally administered the products to be tested in suspension in 2% Tween 80 or in 6% gummy julep, the PBQ solution was injected and the mice were observed after 5 minutes during the following 5 minutes. For certain products, AD 50 is presented as a measure of activity.

[3] = Oral toxicity in mice (LDO, LD50); assay type: in vivo; settings: mouse, in vivo; for LD50 at 336 h: gummy julep (No. 1 and 13 in Tween), 2 weeks observation
Method: as §1, §2, §3, §4

[4] = Rattus norvegicus, 2H, read-out: ED 50
[5] = Rattus norvegicus, 4H, read-out: ED 50

Row | Compound | % activity (inhibition of edema) (rats; 150 mg/kg oral, 2H) [%] | % activity (inhibition of edema) (rats; 150 mg/kg oral, 4H) [%] | % activity (inhibition of edema) (rats; 300 mg/kg oral, 2H) [%] | % activity (inhibition of edema) (rats; 300 mg/kg oral, 4H) [%] | ED50 (mice [1]) [mg/kg] | LDO (maximum dose which did not lead to any mortality) (mice [2]) | % activity (inhibition of edema) (rats; 200 mg/kg oral, 4H) [%] | % activity (inhibition of edema) (rats; 400 mg/kg oral, 4H) [%] | % activity (mice [1]; 200 mg/kg oral) [%] | LD50 at 336 h [3] [mg/kg] | further results
1 | CC(=O)OCC1COc2ccc(NC3OC(=O)c4ccccc43)cc2O1 (stereo not drawn) [Product 19] | 21 | 23 | 26 | 27 | 500 | > 2000 mg/kg |  |  |  |  | % activity (mice [1]; 300 mg/kg oral): 21%
2 | O=C1OC(Nc2ccc3c(c2)OC2(CCCCC2)O3)c2ccccc21 (stereo not drawn) [Product 3] |  |  |  |  |  | 1000 to 2000 mg/kg | 20 | 21 | 29 | ≥ 2000 | 
3 | O=C1OC(Nc2ccc3c(c2)OC(CO)CO3)c2ccccc21 (stereo not drawn) [Product 18] | 16 | 6 | 22 | 0 | 260 | > 2000 mg/kg |  |  | 44 |  | 
4 | COc1ccc2c(c1OC)C(=O)OC2Nc1ccc2c(c1)OCO2 (stereo not drawn) [Product 8] |  |  |  |  | 180 | 750 to 1000 mg/kg | 66 | 48 | 54 | ~1000 | % activity (inhibition of edema) (rats; 200 mg/kg oral, 2H): 68%; % activity (inhibition of edema) (rats; 400 mg/kg oral, 2H): 74%; ED50 (rats; [4]): 180 mg/kg; ED50 (rats; [5]): 230 mg/kg
5 | CCCC1(CCC)Oc2ccc(NC3OC(=O)c4ccccc43)cc2O1 (stereo not drawn) [Product 4] |  |  |  |  |  |  | 23 | 13 | 20 | ~2000 | 
6 | O=C1OC(Nc2ccc3c(c2)COCO3)c2ccccc21 (stereo not drawn) [Product 21] |  |  | 44 | 43 | 275 | > 2000 mg/kg |  |  | 61 |  | ED50 (rats; [4]): 400 mg/kg; ED50 (rats; [5]): 500 mg/kg
7 | Cc1cc2c(cc1NC1OC(=O)c3ccccc31)OCO2 (stereo not drawn) [Product 9] |  |  |  |  | 70 | 1000 to 2000 mg/kg | 39 | 60 |  | > 2000 | % activity (inhibition of edema) (rats; 200 mg/kg oral, 2H): 29%; % activity (inhibition of edema) (rats; 400 mg/kg oral, 2H): 71%; ED50 (rats; [4]): 220 mg/kg; ED50 (rats; [5]): 240 mg/kg; % activity (mice [1]; 100 mg/kg oral): 83%
8 | Cc1cc(NC2OC(=O)c3ccccc32)c(C)c2c1OCOC2 (stereo not drawn) [Product 22] | 35 | 31 |  |  | 260 | > 2000 mg/kg |  |  | 38 |  | 
9 | CCC1(CC)Oc2ccc(NC3OC(=O)c4ccccc43)cc2O1 (stereo not drawn) [Product 2] |  |  |  |  |  | ~ 1500 mg/kg |  | 20 | 29 | ~2000 | 
10 | CC1(C)Oc2ccc(NC3OC(=O)c4ccccc43)cc2O1 (stereo not drawn) [Product 7] |  |  |  |  | 80 | ~ 1000 mg/kg | 20 | 25 | 81 |  | % activity (inhibition of edema) (rats; 200 mg/kg oral, 2H): 19%; % activity (inhibition of edema) (rats; 400 mg/kg oral, 2H): 23%; mortality at 336 h ([3]; at 2000 mg/kg, read-out: deaths (LD50 column)): 70%
11 | COc1ccc2c(c1OC)C(=O)OC2Nc1ccc2c(c1)OCCO2 (stereo not drawn) [Product 14] |  |  |  |  | 150 | > 2000 mg/kg | 33 | 63 | 73 |  | % activity (inhibition of edema) (rats; 200 mg/kg oral, 2H): 63%; % activity (inhibition of edema) (rats; 400 mg/kg oral, 2H): 79%; ED50 (rats; [4]): 175 mg/kg; ED50 (rats; [5]): 260 mg/kg
12 | N(2,2-dimethyl benzodioxol-1,3 yl-5) 3-amino 3H-isobenzofuranone-1 [Product 7] | 68 | 43 |  |  |  |  |  | 68 | 86 |  | % activity (inhibition of edema) (rats; 400 mg/kg oral, 2H): 72%; ED50 (rats; 2H): 75 mg/kg; ED50 (rats; 4H): 220 mg/kg
13 | O=C1OC(Nc2ccc3c(c2)OCC(CO)O3)c2ccccc21 (stereo not drawn) [Product 17] | 27 | 17 | 29 | 8 | 420 | > 2000 mg/kg |  |  | 28 |  | 
14 | O=C(O)c1cc2c(cc1NC1OC(=O)c3ccccc31)OCO2 (stereo not drawn) [Product 15] | 15 | 21 | 15 | 4 |  | > 2000 mg/kg |  |  | 26 |  | 
15 | CC(=O)OCC1COc2cc(NC3OC(=O)c4ccccc43)ccc2O1 (stereo not drawn) [Product 20] | 16 | 3 | 10 | 13 | 550 | > 2000 mg/kg |  |  | 13 |  | 
16 | CCCCC1(C)Oc2ccc(NC3OC(=O)c4ccccc43)cc2O1 (stereo not drawn) [Product 5] |  |  |  |  | 270 | > 2000 mg/kg | 28 | 17 | 42 | > 2000 | 
17 | COC(=O)c1cc2c(cc1NC1OC(=O)c3ccccc31)OCO2 (stereo not drawn) [Product 16] | 12 | 10 |  |  |  | > 2000 mg/kg |  |  |  |  | % activity (mice [1]; 100 mg/kg oral): 33%
18 | CCN(c1ccc2c(c1)OCO2)C1OC(=O)c2ccccc21 (stereo not drawn) [Product 12] |  |  |  |  | 45 |  |  |  |  | ~590 | % activity (inhibition of edema) (rats; 25 mg/kg (footnote *) oral, 2H): 33%; % activity (inhibition of edema) (rats; 25 mg/kg (footnote *) oral, 4H): 17%; % activity (inhibition of edema) (rats; 50 mg/kg oral, 2H): 43%; % activity (inhibition of edema) (rats; 50 mg/kg oral, 4H): 28%; % activity (mice [1]; 50 mg/kg oral): 61%
